Reference: US20230250095A1, “BENZIMIDAZOLE DERIVATIVES, PREPARATION METHOD THEREFOR AND MEDICAL USE THEREOF” (TUOJIE BIOTECH(SHANGHAI) CO., LTD., priority 2020, published 2023)

Tests used:
CYP2D6 = target: T1, CYP2D6 (Homo sapiens, UniProt P10635); test: CYP inhibition assay in pooled human liver microsomes (bufuralol hydrochloride); assay type: in vitro ADME; settings: human liver microsomes 0.2 mg/mL, substrate bufuralol hydrochloride; read-out: CYP 2D6 (μM) IC50
T1 construct: 150-donor pooled human liver microsomes (purchased from Corning, Cat. No. 452117); tissue Corning 452117; host or cells: 150-donor pooled human liver microsomes
Experimental: (§1) The metabolic reactions of representative substrates of 5 major human CYP subtypes (CYP1A2, CYP2C9, CYP2C19, CYP2D6, CYP3A4/5) were evaluated using 150-donor pooled human liver microsomes (purchased from Corning, Cat. No. 452117). The effects of different concentrations of the test compounds on the metabolic reactions of phenacetin (CYP1A2), diclofenac sodium (CYP2C9), S-mephenytoin (CYP2C19), bufuralol hydrochloride (CYP2D6) and midazolam (CYP3A4/5) were determined by liquid chromatography-tandem mass spectrometry (LC/MS/MS).
(§2) 30 μM phenacetin, 10 μM diclofenac sodium, 35 μM S-mephenytoin, 5 μM bufuralol hydrochloride, 3 μM midazolam, 1 mM NADPH, and test compounds (at concentrations of 0.1 μmol/L, 0.3 μmol/L, 1 μmol/L, 3 μmol/L, 10 μmol/L, and 30 μmol/L, respectively) or positive compound or blank were incubated with 200 μL of a reaction system of pooled human liver microsomes (0.2 mg/mL) (100 mmol/L phosphate buffer, pH 7.4, containing 0.3% by volume of DMSO, 0.6% by volume of acetonitrile, and 0.1% by volume of methanol) at 37° C. for 5 min. Then, 200 μL of acetonitrile containing 3% formic acid and 40 nM internal standard verapamil was added, and the mixture was centrifuged at 4000 rpm for 50 min. The mixture was cooled on ice for 20 min and centrifuged at 4000 rpm for 20 min to precipitate the protein. 200 μL of the supernatant was analyzed by LC/MS/MS.
(§3) The peak area was calculated from the chromatogram. The residual activity rate (%) was calculated by the following formula:
(§4) peak area rate=peak area of metabolite/peak area of internal standard
(§5) residual activity rate (%)=peak area proportion of the test compound group/peak area proportion of the blank group
(§6) The half maximal inhibitory concentrations (IC50) against CYP were calculated by Excel XLfit 5.3.1.3.

CYP3A4/5 = test: CYP inhibition assay in pooled human liver microsomes (midazolam); assay type: in vitro ADME; settings: pH 7.4, probe midazolam (3 μM), human liver microsomes 0.2 mg/mL, substrate midazolam, read-out: CYP 3A4/5 (μM) IC50
Experimental: as §1, §2, §3, §4, §5, §6

hP2X2/3 = target: T2, hP2X2/3 (Homo sapiens, UniProt P56373+Q9UBL9); test: FLIPR calcium flux assay, antagonistic activity against hP2X2/3 receptor; assay type: cell-based; settings: 1321N1/hP2X2/3 cells, agonist α,β-meATP 1000 nM
T2 construct: host or cells: 1321N1 cells
T2 sequence (Q9UBL9 1-471): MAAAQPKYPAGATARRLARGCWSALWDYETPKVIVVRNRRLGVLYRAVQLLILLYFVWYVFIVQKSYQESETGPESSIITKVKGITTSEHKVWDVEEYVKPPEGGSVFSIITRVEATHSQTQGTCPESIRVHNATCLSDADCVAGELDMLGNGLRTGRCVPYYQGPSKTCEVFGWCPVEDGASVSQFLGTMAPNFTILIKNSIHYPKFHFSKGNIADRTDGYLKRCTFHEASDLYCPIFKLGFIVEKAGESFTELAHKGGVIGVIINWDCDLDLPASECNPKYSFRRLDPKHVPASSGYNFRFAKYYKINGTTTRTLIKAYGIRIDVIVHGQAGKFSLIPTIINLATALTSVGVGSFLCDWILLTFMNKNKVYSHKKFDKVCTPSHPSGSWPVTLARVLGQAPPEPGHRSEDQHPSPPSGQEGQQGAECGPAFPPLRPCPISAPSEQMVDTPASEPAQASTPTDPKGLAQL
T2 sequence (P56373 1-397): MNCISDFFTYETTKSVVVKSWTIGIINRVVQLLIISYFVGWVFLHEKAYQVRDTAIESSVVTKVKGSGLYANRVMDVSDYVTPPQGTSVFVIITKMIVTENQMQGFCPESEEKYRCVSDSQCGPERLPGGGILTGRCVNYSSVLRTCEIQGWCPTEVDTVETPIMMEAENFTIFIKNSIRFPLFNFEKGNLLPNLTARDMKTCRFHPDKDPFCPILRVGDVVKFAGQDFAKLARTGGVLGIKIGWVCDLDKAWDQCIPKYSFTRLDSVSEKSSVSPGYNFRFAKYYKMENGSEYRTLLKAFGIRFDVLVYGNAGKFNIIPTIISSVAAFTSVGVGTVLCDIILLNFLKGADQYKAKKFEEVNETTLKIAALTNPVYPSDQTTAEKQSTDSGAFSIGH
Experimental: The compounds were screened for antagonistic activity against hP2X3 and hP2X2/3 receptors (changes in calcium flux signals represent the effect of the compounds on ion channels) by an FLIPR assay.
1321N1 cells (adherent cells) stably transfected with hP2X3 and hP2X2/3 receptors were digested, centrifuged, resuspended in a plating medium (DMEM+10% DFBS) and counted, adjusted to 2×10^5 cells/mL. The cells were seeded in a 384-well assay plate at 50 μL/well, and incubated in an incubator at 37° C. with 5% CO2 for 16-24 h. Test compounds (20 mM DMSO stock solution) that were 180 times the desired concentration were prepared with DMSO, and added to a 384-well compound plate at 500 nL/well. Then, each well was supplemented with 30 μL of FLIPR buffer (lx HBSS containing 1.26 mM Ca^2++2 mM CaCl2)+20 mM HEPES), and the mixture was shaken for 20-40 min to be mixed well. The agonist α,β-meATP (final concentration of 500 nM for hP2X3 cells and final concentration of 1000 nM for hP2X2/3 cells) that was 3 times the desired concentration was prepared with an FLIPR buffer, and added to another 384-well compound plate at 35 μL/well. The cell plate in which cells had been plated and cultured for 16-24 h was taken out, and the cell supernatant was removed by pipetting. 30 μL of dye (FLIPR® calcium 4 assay kit, diluted with an FLIPR buffer) was added to each well, and the plate was incubated for 1 h. 15 μL of the compound was added to each well containing cells (dosing using an FLIPR instrument), and after 15 min, 22.5 μL of agonist was added to each well and the fluorescent signal was detected (excitation wavelength: 470-495 nm, emission wavelength: 515-575 nm). With the difference between the peak and the trough of the signal taken as the basic data, the data of the highest concentration of the positive drug taken as the 100% inhibition rate, and the data of DMSO taken as the 0% inhibition rate, the inhibition effect curves of the compounds were fitted on the software Graphpad Prism 6 and IC50 values were calculated.

T1 sequence (P10635 whole entry): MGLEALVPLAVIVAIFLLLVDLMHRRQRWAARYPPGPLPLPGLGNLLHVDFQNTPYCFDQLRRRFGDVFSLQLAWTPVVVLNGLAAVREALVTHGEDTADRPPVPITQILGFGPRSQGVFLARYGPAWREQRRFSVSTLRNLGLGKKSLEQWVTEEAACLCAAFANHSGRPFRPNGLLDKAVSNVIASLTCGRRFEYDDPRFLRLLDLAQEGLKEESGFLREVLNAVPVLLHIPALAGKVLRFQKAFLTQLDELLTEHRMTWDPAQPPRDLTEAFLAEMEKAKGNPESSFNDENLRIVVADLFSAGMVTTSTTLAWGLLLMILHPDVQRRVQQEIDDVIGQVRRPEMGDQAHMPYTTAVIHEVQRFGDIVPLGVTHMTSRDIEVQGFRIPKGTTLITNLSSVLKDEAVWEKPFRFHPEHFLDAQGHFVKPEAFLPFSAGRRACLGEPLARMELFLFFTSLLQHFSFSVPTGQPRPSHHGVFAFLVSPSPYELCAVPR

CC(=O)N1CCOC(Cn2c(-c3c(F)cc(N4CCCC4=O)cc3F)nc3cc(C)ccc32)C1 (stereo in doubt) [Compound 1]
IC50 (CYP2D6): > 30 µM
IC50 at 5 min (CYP3A4/5): > 30 µM
IC50 (hP2X2/3): 5.57 µM

COC(=O)N1CCOC(Cn2c(-c3c(F)cc(N4CCCC4=O)cc3F)nc3cc(C)ccc32)C1 (centres unmarked) [Compound 2, Methyl 2-((2-(2,6-difluoro-4-(2-carbonylpyrrolidin-1-yl)phenyl)-5-methyl-1H-benzo[d]imidazol-1-yl)methyl)morpholine-4-carboxylate]
IC50 (CYP2D6): > 30 µM
IC50 at 5 min (CYP3A4/5): > 30 µM
IC50 (hP2X2/3): 19 µM

CC(=O)N1CCO[C@@H](Cn2c(-c3ccc(N4CCCC4=O)cc3Cl)nc3cc(C)ccc32)C1 [Compound 3, (S)-1-(4-(1-((4-acetylmorpholin-2-yl)methyl)-5-methyl-1H-benzo[d]imidazol-2-yl)-3-chlorophenyl)pyrrolidin-2-one]
IC50 (CYP2D6): > 30 µM
IC50 at 5 min (CYP3A4/5): > 30 µM
IC50 (hP2X2/3): 1.81 µM

CC(=O)N1CCO[C@@H](Cn2c(-c3c(F)cc(N4CCCC4=O)cc3Cl)nc3cc(C)ccc32)C1 [Compound 4, (S)-1-(4-(1-((4-acetylmorpholin-2-yl)methyl)-5-methyl-1H-benzo[d]imidazol-2-yl)-3-chloro-5-fluorophenyl)pyrrolidin-2-one]
IC50 (CYP2D6): > 30 µM
IC50 at 5 min (CYP3A4/5): > 30 µM
IC50 (hP2X2/3): 1.93 µM

COC(=O)N1CCO[C@@H](Cc2c(-c3c(F)cc(N4CCCC4=O)cc3F)nc3cc(C)ccn23)C1 [Compound 9, Methyl (S)-2-((2-(2,6-difluoro-4-(2-carbonylpyrrolidin-1-yl)phenyl)-7-methylimidazo[1,2-a]pyridin-3-yl)methyl)morpholine-4-carboxylate]
IC50 (CYP2D6): > 30 µM
IC50 at 5 min (CYP3A4/5): 12.9 µM
IC50 (hP2X2/3): 30.3 µM

CC(=O)N1CCO[C@@H](Cn2c(-c3c(F)cc(N4CCCC4=O)cc3F)nc3cc(Cl)ccc32)C1 [Compound 10, (S)-1-(4-(1-((4-acetylmorpholin-2-yl)methyl)-5-chloro-1H-benzo[d]imidazol-2-yl)-3,5-difluorophenyl)pyrrolidin-2-one]
IC50 (CYP2D6): > 30 µM
IC50 at 5 min (CYP3A4/5): > 30 µM
IC50 (hP2X2/3): 7.41 µM

[2H]C([2H])([2H])c1ccc2c(c1)nc(-c1c(F)cc(N3CCCC3=O)cc1F)n2C[C@H]1CN(C(C)=O)CCO1 [Compound 14, (S)-1-(4-(1-((4-acetylmorpholin-2-yl)methyl)-5-(methyl-d3)-1H-benzo[d]imidazol-2-yl)-3,5-difluorophenyl)pyrrolidin-2-one]
IC50 (CYP2D6): > 30 µM
IC50 at 5 min (CYP3A4/5): > 30 µM
